Results published in patent US10143727B2, “Method using an Y1 receptor activator for treating an anticancer agent-induced nephrotoxic injury” (KYUNGPOOK NATIONAL UNIVERSITY INDUSTRY-ACADEMIC COOPERATION …, priority 2016, dated 2018).

Columns and labels:
[1] = test system: cisplatin-induced renal injury; test: Creatinine and BUN assays in cisplatin-induced renal injury; type: in vivo, C57BL/6 mice; conditions: cisplatin 15 mg per kg mice; test peptide 50 ug per kg i.p. daily for 3 days; vs cisplatin-treated mice
Method: (§1) Six- to eight-weeks old male or female C57BL/6 mice were purchased from the Jackson laboratory. A block randomization method was used to divide these animals into experimental groups. In order to eliminate bias, investigators were blinded during data collection and analysis. The mice were housed under a 12 hour day-night cycle. They were provided with free access to water and food pellets. This animal study was approved by the Kyungpook National University Institutional Animal Care and Use Committee.
(§2) Three days later, kidneys were collected and analyzed.
To monitor renal function, plasma levels of BUN and creatinine were determined using commercially available kits as described previously (See Pabla N et al., J Clin Invest 121, 2709-2722, 2011).

[2] = test system: cisplatin-induced renal injury; test: Histology (H&E staining) and morphological assessment of renal tissues; type: in vivo, C57BL/6 mice
Method: as §1, §2
(§3) Formaldehyde-fixed kidneys were dehydrated using graded alcohol series and paraffinized. Paraffin sections of 5 μm were stained with hematoxylin and eosin (H&E). Each parameter was determined for at least 6 different animals. TUNEL assays were performed using In Situ Cell Detection Kit, Fluorescein (Roche Diagnostic) according to the manufacturer's instructions. A pathologist quantified kidney damage in a double blinded manner using renal damage score, as previously described (See Jiang M et al., Am J Physiol Renal Physiol 287, F1140-1147, 2004). Briefly, tissues were stained with H&E. The degree of morphological involvement in renal dysfunction was determined using light microscopy.
Each parameter was determined for at least five different animals.

[3] = test system: cisplatin-induced apoptosis in the kidney; test: TUNEL assay of renal apoptosis; type: in vivo, C57BL/6 mice; conditions: cisplatin 15 mg per kg mice; 50 ug per kg i.p. daily for 3 days
Method: as §1, §2, §3

[4] = test system: p53-dependent apoptosis pathway; type: in vivo; conditions: renal tissues of cisplatin-treated mice; 50 ug per kg i.p. daily for 3 days
Method: as §1, §2
Samples were immunoblotted as previously described (See Santos-Carvalho A et al., Cell Death Dis 4, e636, 2013). Primary antibodies against the following proteins were used: P53(mouse, 1: 1000, Cell Signaling Technologies, 2524), Bax (rabbit, 1: 1000, Cell Signaling Technologies, 2772), Bcl2 (rabbit, 1: 1000, Cell Signaling Technologies, 5114S), and β-actin (1: 1000, Santa Cruz, SC-1615). Densitometric quantification was performed using Image J software (US National Institutes of Health).
Real time RT-PCR was performed as previously described (See Hu L et al., BMB Rep 48, 583-588, 2015). […] Quantitative real-time PCR was performed using Corbett research RG-6000 real-time PCR instrument. […]

Neuropeptide Y [Neuropeptide Y (NPY)]
Plasma concentration of blood urea nitrogen (BUN) [1]: decreased | Plasma concentration of creatinine [1]: decreased | Cisplatin-induced increase in apoptotic tubular cells in the renal cortex (H&E) ([2]; cisplatin 15 mg per kg mice, 50 ug per kg i.p. daily for 3 days): diminished | Apoptotic cells in the kidney (TUNEL assay) [3]: decrease | Expression levels of p53 and pro-apoptotic genes such as Bax, Noxa, and Puma [4]: decreased

N.N.[Cl][Pt][Cl] [cisplatin, Cisplatin, reference compound]
Apoptotic tubular cells in the renal cortex (H&E) ([2]; cisplatin 15 mg per kg alone): increase

[Leu31Pro34]NPY [Y1 agonist]
Plasma concentration of blood urea nitrogen (BUN) [1]: reduced | Plasma concentration of creatinine [1]: reduced | Renal injury (H&E, tubular damage) ([2]; cisplatin 15 mg per kg mice, 50 ug per kg i.p. daily for 3 days, FIG. 3d): significantly reduced | Apoptotic cells in the kidney (TUNEL assay) [3]: decreased | Expression levels of p53 and pro-apoptotic genes such as Bax, Noxa, and Puma [4]: suppressed
